Results reported in a melting point compilation (Tetko et al.; mined from patent text by program, amines drawn as free bases though some values may be those of a salt).

Structure (SMILES)	melting point [°C]
CCOCC1=C(C(=O)OCC)C(c2ccc(OC)c(F)c2)C(C(=O)OCC)=C(C)N1 (stereo unspecified)	120
CC(=O)N1CCc2cc3c(cc21)C(=O)C(=O)N3	> 250
O=C(c1ccc(Cl)cc1)N1CCC(=Cc2ccc(C3=NCCO3)cc2F)CC1	150 to 152
O=C(O)CCCCCCC1C(=O)NC(=O)N1CCCCCc1ccccc1 (stereo unspecified)	90 to 92
COc1ccc(C2=NCCc3c(C)cccc32)cc1	83 to 83.5
CCOC(=O)NC1Cc2ccccc2C1Nc1ccccc1CO (stereo unspecified)	115 to 117
Cc1ccc(C)n1-c1ccc(I)cc1F	68 to 70
O=C(CCCCCCN(Cc1ccccc1)C(=O)c1cn2c3c(cccc13)CCC2)NO	71 to 73
CCN(CC)CCOc1ccc(Nc2ncc3c(n2)N(c2cccc(CCN(C)C)c2)C(=O)N(c2ccc(Cl)cc2Cl)C3)cc1	92
CCc1cc(C#N)cc(C)c1CC(=O)OC	65 to 72
O=S(=O)(O)NCc1ccncc1	227 to 228
COc1ccc(Cl)cc1C(=O)NC(C)Cc1ccc(CCC(=O)O)cc1 (stereo unspecified)	125 to 126
Cc1cccc2c1N(CCN(C(C)C)C(C)C)C(=O)/C2=N/NC(N)=O	194 to 195
COc1cc(CCc2ccccc2)c(OC)c2c1C(=O)c1ccccc1C2=O	100
CN(O)C(=O)c1ccccc1Nc1c(Cl)cccc1Cl	137 to 140
COc1cc(CCC=CC(=O)CCC(=O)O)cc(OC)c1OC	187 to 189
[N-]=[N+]=NC[C@H]1O[C@H]([C@H](O)CO)[C@H](O)[C@@H]1O	86
CC(C)(C(=O)O)c1nc2ccc(NCCCN3CCN(C(c4ccccc4)c4ccccc4)CC3)nn2c1Cl	184 to 186
NC(CNCC(N)=NO)=NO	135 to 136
CC1CN(c2ccc([N+](=O)[O-])nc2)C1	141 to 143
OCC1OC(n2c(Cl)nc3cc(Cl)ccc32)C(O)C1O (stereo unspecified)	102 to 150

Structure (SMILES)	melting point [°C]
CCCn1c(=O)c2c(nc(C=Cc3cc(C)c(C)cc3S(=O)(=O)O)n2C)n(CCC)c1=O	> 280
CC(C)NC(=O)Nc1cc(C(C)(C)C)on1	135 to 138
CC(=O)Oc1ccc2c(c1)C1C(OC(=O)C(C)(C)C)CC3(C)C(OC(=O)C(C)(C)C)CCC3C1CC2 (stereo unspecified)	143 to 146
CC(CC(=O)c1ccc(C(N)=S)cc1)C(=O)N1CCC(OCC(=O)OC(C)(C)C)CC1 (racemic)	152 to 155
COc1ccc(CNC2SC(=O)NC2=O)cc1 (stereo unspecified)	140 to 142
Cc1cc2c3c(cc(C)c2[nH]c1=O)C(C)C(C(C)N)O3 (stereo unspecified)	195 to 207
O=S(=O)(Nc1ccc2[nH]c3c(c2c1)CCNC3)c1c(Cl)nc2sccn12	242 to 244
O=C(O)CN(C(=O)CCCCl)c1csc2ccccc12	167 to 168
Cc1ccc(C(=O)NC(NC(=S)Nc2cccc([N+](=O)[O-])c2)c2ccccc2)cc1 (stereo unspecified)	170 to 172
CCCCCCCCC(O)CNCCCNCC(O)CCCCCCCC (stereo unspecified)	104 to 108
CCOC(=O)c1cn2c3c(c(-c4cc(C)nc(C)c4)c(F)c(F)c3c1=O)OC[C@@H]2C	295 to 297
NS(=O)(=O)c1ccccc1CSc1ncccn1	128 to 130
NS(=O)(=O)c1ccc(-c2cnn(C=C(F)C(F)F)c(=O)c2-c2ccc(F)cc2)cc1	190 to 193
Cc1ccc(-c2nccc3c(C#N)cccc23)cc1	132
CCCCCCCOc1cc(F)nc(N)n1	30 to 32
C=C1CCc2[nH]c3c(c2C1=O)CCC3	214 to 215
CN1CCN(c2ccc3nc(-c4ccc(F)cc4)c(I)n3n2)CC1	180
N#Cc1ccc2cc3c4c(cccc4c2c1)C(=O)OC3=O	> 320
CC(C)(C)OC(=O)N[C@H](Cc1ccccc1)C(=O)N1CCC[C@H]1C(=O)NC(Cc1ccc(C#N)cc1)P(=O)(Oc1ccccc1)Oc1ccccc1 (stereo partly specified)	85 to 90
CN1CCc2c(sc3ncn(CCO)c(=O)c23)C1	163 to 165
